Assay results reported in PubChem BioAssay AID464 (The Scripps Research Institute Molecular Screening Center, 2006).
Calls of active or inactive are those of the source.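 Rule for the calls: active = Compounds that kill half the cells at a concentration of 5 micromolar or below, from the fitted or estimated CC50; inactive = CC50 above 5 micromolar.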

Test system: Jurkat E6.1 viability, ATP luminescence, 48 h
Test: Jurkat E6.1 cell cytotoxicity, CC50 determination, dose response, cytotoxicity control, ATP luminescence, 48 h, 60K MLSMR (AID 464)

| SMILES | CC50 |
| --- | --- |
| Cc1ccc(O)c(NC(=O)CCC2CCCCC2)c1 | 6 µM (inactive) |
| CN1Cc2cc(C(=O)c3cc(Cl)cc(CSc4ncccn4)c3O)cnc2NC1=O | 0.212 µM |
| COc1ccc(OC)c(C(C)NC(=O)c2ccco2)c1 (stereo not drawn) | 6.24 µM (inactive) |
| OCCN1CCN(C(c2cccs2)c2ccc3cccnc3c2O)CC1 (stereo not drawn) | 13.5 µM (inactive) |
| O=C(Nc1nc(-c2ccc3c(c2)OCO3)cs1)c1ccncc1 | > 40 µM (inactive) |
| COc1ccc(C(O)c2nc3ccccc3n2C)cc1OC (stereo not drawn) | 5.83 µM (inactive) |
| COc1ccc(NC(=O)c2cc(-c3ccccc3OC)on2)cc1 | 1.85 µM |
| CCOC(=O)c1ccccc1NC(=O)Cn1c(-c2nonc2N)nc2ccccc21 | 0.296 µM |
| CC(=O)Nc1ccccc1N(C)S(=O)(=O)c1ccc(C)cc1 | 4.57 µM |
| COc1ccc(-c2nc3cc(NC(=O)Cc4ccc(OC)c(OC)c4)ccc3o2)cc1 | > 40 µM (inactive) |
| CCn1c(NC(=O)c2cccc(Cn3cc(Cl)cn3)c2)nc2ccccc21 | > 40 µM (inactive) |
| COc1ccccc1-c1nnc(Nc2nc3c(OC)cccc3s2)o1 | 0.664 µM |
| O=C(Cc1ccc(-n2cccc2)cc1)NCc1cccs1 | 0.513 µM |
| COc1ccc(C2=Nn3c(nnc3-c3ccccc3OC)SC2)cc1OC | 0.116 µM |
| COCCNc1nc2c(c(=O)n(C)c(=O)n2C)n1Cc1cccc(C)c1 | 25.6 µM (inactive) |
| COc1cccc(OCc2nc3ncc(Br)cc3[nH]2)c1 | 1.11 µM |
| CC(O)CNc1nc2c(c(=O)n(C)c(=O)n2C)n1Cc1cccc(Br)c1 (stereo not drawn) | 22.5 µM (inactive) |
| O=C(Nc1nc(-c2ccccc2)cs1)C1CCCN(S(=O)(=O)c2ccccc2)C1 (stereo not drawn) | 20.9 µM (inactive) |
| CN(C)S(=O)(=O)c1ccc(N2CCN(S(=O)(=O)c3ccc(F)cc3)CC2)c(Cl)c1 | 16.1 µM (inactive) |
| CCOC(=O)c1c(C)c(C(=O)Nc2ccc(N(C)C)cc2)c(C)n1CC | 5.84 µM (inactive) |
| CCN(CC)c1ccc(-c2nn3c(-c4n[nH]c5c4CCC5)nnc3s2)cc1 | 0.895 µM |
| COc1ccc2c(c1)sc1nc(-c3ccccc3)cn12 | 0.75 µM |

| SMILES | CC50 |
| --- | --- |
| CCCCOC(=O)c1[nH]c2c(c1C)C(=O)CC(c1cc(OC)c(OC)c(OC)c1)C2 (stereo not drawn) | 18.7 µM (inactive) |
| CCOC(=O)c1[nH]c(C)c(C(=O)Nc2ccc(C)c(F)c2)c1C | 7.19 µM (inactive) |
| N#C/C(=C/c1ccc(N2CCCCCC2)o1)c1ccc(F)cc1 | > 13 µM (inactive) |
| CCN(CC)S(=O)(=O)c1cccc(C(=O)Nc2ccccc2)c1 | 18.3 µM (inactive) |
| CCNc1nc2c(c(=O)n(C)c(=O)n2C)n1Cc1ccc(Cl)cc1 | 4.09 µM |
| CCCc1cc(C(=O)Nc2cc(Br)ccc2O)no1 | > 40 µM (inactive) |
| O=C(Nc1ccncc1)C1CCCN(S(=O)(=O)c2cccc3cccnc23)C1 (stereo not drawn) | 1.42 µM |
| COc1ccc(C2=NOC(C(=O)NCc3ccc(F)cc3)C2)cc1OC (stereo not drawn) | 0.318 µM |
| COC(=O)/C=C/S(=O)(=O)c1ccc(NC(C)=O)cc1 | 2.31 µM |
| COc1ccccc1NC(=O)Cc1nn(C)c(=O)c2ccccc12 | 3.35 µM |
| CC1Cc2cc(-c3csc(NC(=O)Cc4cccs4)n3)ccc2N1S(C)(=O)=O (stereo not drawn) | 5.23 µM (inactive) |
| CC(C)OCCCNc1ncnc2c1[nH]c1ccccc12 | 4.91 µM |
| COc1cc(C(=O)N2CCN(c3ncnc4sc(C)c(C)c34)CC2)cc(OC)c1OC | 2.36 µM |
| CCOC(=O)NC1(Nc2ccc(Cl)cn2)Oc2ccccc2O1 | 12.5 µM (inactive) |
| N#CC1=C(N)Oc2cc(N)ccc2C1C1CCCCC1 (stereo not drawn) | 2.49 µM |
| CCOC(=O)c1[nH]c(C)c(C(=O)Nc2ccc(C)cc2C)c1C | 1.64 µM |
| COc1cc(NS(=O)(=O)c2ccc(C)cc2C)cc(OC)c1OC | 9.46 µM (inactive) |
| O=C(Nc1nc2ccccc2[nH]1)c1ccccc1F | 4.79 µM |
| CCOC(=O)CS(=O)(=O)c1nc(-c2ccc(F)cc2)cc(C(F)(F)F)n1 | 3.81 µM |
| CCOc1ccc(C2=Nn3c(nnc3-c3ccc(OC)cc3)SC2)cc1 | 0.841 µM |
| c1ccc(OCCCCn2cnc3ccccc32)cc1 | 20.3 µM (inactive) |
| O=C(CCCCn1c(=O)c2ccccc2n(Cc2ccc(F)cc2)c1=O)NCc1ccco1 | 9.14 µM (inactive) |

| SMILES | CC50 |
| --- | --- |
| COc1cc(CSc2nnnn2-c2ccc(C)cc2)cc(OC)c1OC | 2.38 µM |
| CCN(CC)c1ccc2c(c1)OC(N)=C(C#N)C2c1cccnc1 (stereo not drawn) | 0.0192 µM |
| Oc1ccc(Cl)cc1CNc1ccc(Br)cn1 | > 40 µM (inactive) |
| CC(=O)CC1OC(=O)C(Br)=C1NCc1ccccc1 (stereo not drawn) | 3.91 µM |
| CCCN1C(=O)c2ccccc2NC1c1ccc(OC)cc1O (stereo not drawn) | > 40 µM (inactive) |
| O=C(Nc1ccc(N2CCCCC2)c(Cl)c1)c1cccnc1 | > 40 µM (inactive) |
| O=c1c2ccccc2nnn1CSc1nnc(-c2cccs2)n1Cc1ccccc1 | > 40 µM (inactive) |
| CCCCOc1ncnc2c1[nH]c1ccc(F)cc12 | > 40 µM (inactive) |
| CCCCC(=O)Nc1ccc(C(=O)NCCCn2ccnc2)cc1 | > 4.4 µM (inactive) |
| CC(=O)C(C(C)=O)c1c(Cl)c(O)c(O)c2c(C(=O)c3ccccc3)coc12 | 8.76 µM (inactive) |
| O=C(Nc1ccc(SC(F)F)cc1)c1ccc2nccnc2c1 | 13.1 µM (inactive) |
| Cc1ccc(Nc2cc(C)nn2-c2nc(C)cc(=O)[nH]2)cc1 | 1.31 µM |
| O=C(c1ccc(F)cc1)C(CN1CCOCC1)c1ccccc1 (stereo not drawn) | 5.53 µM (inactive) |
| Cc1cccc(OCC(=O)Nc2cc(C)ccc2O)c1 | 5.78 µM (inactive) |
| COc1ccc(C(NC(C)=O)c2ccc3cccnc3c2O)c(OC)c1 (stereo not drawn) | 3.15 µM |
| C=CCN(C(=O)c1ccccc1)c1ccc(OC)cc1 | 9.5 µM (inactive) |
| CCSc1nnc(NC(=O)c2ccccn2)s1 | 8.3 µM (inactive) |
| COc1cc(C2=NOC(C(=O)NCc3ccco3)C2)cc(OC)c1OC (stereo not drawn) | 2.21 µM |
| COc1ccccc1-n1nnnc1S(=O)(=O)Cc1ccc(Cl)cc1 | 3.3 µM |
| CC(C)Cc1cc(C(=O)Nc2cc(Br)ccc2O)no1 | > 40 µM (inactive) |
| CCC(=O)Nc1nc2ccccc2n1Cc1ccc(C)cc1 | > 40 µM (inactive) |
| N#CCCn1cc(/C=N/O)c(-c2ccc(-c3ccccc3)cc2)n1 | 11.6 µM (inactive) |

| SMILES | CC50 |
| --- | --- |
| Cc1cccc(N2CCN(C(=O)c3ccc(Cl)c(S(=O)(=O)NCc4ccco4)c3)CC2)c1C | 9.8 µM (inactive) |
| O=C(Nc1nc(-c2ccc3c(c2)OCCO3)cs1)c1ccc(S(=O)(=O)N2CCCCC2)cc1 | 8.3 µM (inactive) |
| O=C(c1ccco1)N1CCN(C(=O)N2c3ccccc3Sc3ccccc32)CC1 | 0.099 µM |
| COc1ccc(-c2cn3c(C)c(C(=O)Nc4cc(NC(C)=O)ccc4OC)sc3n2)cc1 | 2.23 µM |
| COC(=O)c1ccc(Oc2cc(C)nc(SC)n2)cc1 | 1.68 µM |
| CCCNc1nc2c(c(=O)n(C)c(=O)n2C)n1CCC(C)C | 11.9 µM (inactive) |
| COCCCN1C(=O)c2[nH]nc(-c3ccccc3O)c2C1c1cccc(Cl)c1 (stereo not drawn) | 3.39 µM |
| CCOc1ccc(S(=O)(=O)n2cnc3cc(C)c(C)cc32)cc1 | 4.83 µM |
| CCCOC(=O)c1[nH]c2c(c1C)C(=O)CC(c1cc(OC)c(OC)c(OC)c1)C2 (stereo not drawn) | 23.8 µM (inactive) |
| CCCNS(=O)(=O)c1ccc(OCC(=O)N2CCN(Cc3ccc4c(c3)OCO4)CC2)cc1 | 7.96 µM (inactive) |
| CCOC(=O)C1(Nc2nccs2)Sc2ccccc2NC1=O (stereo not drawn) | 3.66 µM |
| O=C(Cc1n[nH]c(=O)c2ccccc12)OCC(=O)c1ccc2c(c1)OCCO2 | 3.4 µM |
| COCc1cc(CN2CCCC2)c(O)c2ncccc12 | > 13 µM (inactive) |
| Cc1sc(NC(=O)c2ccco2)nc1-c1ccc2c(c1)CC(C)N2C(=O)C1CC1 (stereo not drawn) | 16.3 µM (inactive) |
| Cc1cc(N2CCN(C/C=C/c3ccccc3)CC2)n2ncnc2n1 | > 40 µM (inactive) |
| CCCCn1c(CN2CCN(c3ccccc3)CC2)nc2c1c(=O)n(C)c(=O)n2C | 10.4 µM (inactive) |
| O=C(Nc1cc(N2CCOCC2)ncn1)NC1(C(F)(F)F)Oc2ccc(Cl)cc2O1 (stereo not drawn) | 4.81 µM |
| CCOC(=O)C1(N(CC)CC)Sc2cc(C)ccc2NC1=O (stereo not drawn) | 8.81 µM (inactive) |
| N#CC1=C(N)Oc2cc(N)ccc2C1C1CC=CCC1 (stereo not drawn) | > 4.4 µM (inactive) |
| COc1ccc(-c2cc(N)n(S(=O)(=O)c3c(F)c(F)c(F)c(F)c3F)n2)cc1OC | 2.01 µM |
| CC1CCCCN1S(=O)(=O)c1ccc(C(=O)Nc2nnc(-c3cccs3)o2)cc1 (stereo not drawn) | 13.7 µM (inactive) |
| COc1cccc(C2=CC(c3cccc(OC)c3OC)n3nnnc3N2)c1 (stereo not drawn) | 16.5 µM (inactive) |

| SMILES | CC50 |
| --- | --- |
| Oc1ccc(N=Cc2ccc(O)c(O)c2)cc1 | 25.9 µM (inactive) |
| Cn1c(C(=O)NCc2cccs2)cc2oc3ccccc3c21 | > 40 µM (inactive) |
| Cc1cc(C(=O)CSc2nnc(-c3cccc(F)c3)n2N)c(C)n1Cc1ccc2c(c1)OCO2 | 9.37 µM (inactive) |
| CCOc1ccc(Nc2cc(C)nc(-n3nc(C)cc3C)n2)cc1 | 0.191 µM |
| O=c1c2cc3ccccc3n2cnn1Cc1ccccc1F | 16.4 µM (inactive) |
| Cc1ccc(-n2c(O)c(C=Nc3ccccc3N)c(=O)[nH]c2=O)cc1C | > 13 µM (inactive) |
| Cc1cc(NC(=O)CSc2nc(-c3ccco3)cc(C(F)(F)F)n2)no1 | 0.233 µM |
| CCCCNc1ncnc2c1cnn2-c1ccccc1 | 2.39 µM |
| O=S(=O)(Nc1cccc2ncccc12)c1cccs1 | 6.36 µM (inactive) |
| COc1ccc(Nc2nc(N3CCCC3)nc3ccccc23)c(OC)c1 | 21.9 µM (inactive) |
| CCN(CC)C(=O)C1CCCc2c1[nH]c1ccc(Cl)cc21 (stereo not drawn) | > 40 µM (inactive) |
| Cn1c(=O)n(C)c2cc(NS(=O)(=O)c3ccc4c(c3)CCCC4)ccc21 | 8.18 µM (inactive) |
| C=C(C)COc1ccc(-c2[nH]ncc2-c2ccc(OC)c(OC)c2)c(O)c1 | 0.782 µM |
| O=C(c1ccncc1)N(Cc1cc2ccccc2[nH]c1=O)C1CCCCC1 | 5.31 µM (inactive) |
| N#CC(C#N)=c1ccc2c(c1)NC1(CCCCC1)N=2 | 8.08 µM (inactive) |
| CCOc1cc(C(=O)N2CCc3cc(OC)c(OC)cc3C2)ccc1OC(F)F | 0.366 µM |
| CCOc1ccccc1NC(=O)Cn1nnc(C(=O)NCc2ccco2)c1N | 0.078 µM |
| CC(C)C(=O)Nc1ccc(C(=O)NCc2cccnc2)cc1 | 3.87 µM |
| CCCSc1nnc(Sc2nnnn2-c2ccccc2)s1 | 1.28 µM |
| O=C(CCn1c(=O)oc2ccccc21)N1CCN(c2ccccc2Cl)CC1 | 5.77 µM (inactive) |
